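Following 48 hours of exposure in 96-well plates, responses at five concentrations were used to interpolate endpoints linearly. Definition used: TGI = concentration required for complete inhibition of growth.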
Assays:
Test in all cases: DTP human tumour cell line panel, 48 h
RXF 393 renal = test system: RXF 393 renal
A549 NSCLC = test system: A549 NSCLC
M14 melanoma = test system: M14 melanoma
LOX IMVI melanoma = test system: LOX IMVI melanoma
MALME-3M melanoma = test system: MALME-3M melanoma
IGROV1 ovarian = test system: IGROV1 ovarian
HL-60(TB) leukemia = test system: HL-60(TB) leukemia
NCI/ADR-RES ovarian = test system: NCI/ADR-RES ovarian
A498 renal = test system: A498 renal
CCRF-CEM leukemia = test system: CCRF-CEM leukemia
K-562 leukemia = test system: K-562 leukemia
NCI-H226 lung = test system: NCI-H226 lung
NCI-H460 lung = test system: NCI-H460 lung
T-47D breast = test system: T-47D breast
SK-MEL-5 melanoma = test system: SK-MEL-5 melanoma
SR leukemia = test system: SR leukemia
CAKI-1 renal = test system: CAKI-1 renal
EKVX NSCLC = test system: EKVX NSCLC
OVCAR-3 ovarian = test system: OVCAR-3 ovarian
HOP-92 NSCLC = test system: HOP-92 NSCLC
OVCAR-4 ovarian = test system: OVCAR-4 ovarian
HOP-62 NSCLC = test system: HOP-62 NSCLC
DU-145 prostate = test system: DU-145 prostate
SW-620 colon = test system: SW-620 colon
SF-539 CNS = test system: SF-539 CNS
TK-10 renal = test system: TK-10 renal
NCI-H23 lung = test system: NCI-H23 lung
HCT-15 colon = test system: HCT-15 colon
MDA-MB-435 = test system: MDA-MB-435
BT-549 breast = test system: BT-549 breast
PC-3 prostate = test system: PC-3 prostate
UACC-62 melanoma = test system: UACC-62 melanoma
HCT-116 colon = test system: HCT-116 colon
SK-OV-3 ovarian = test system: SK-OV-3 ovarian
HCC-2998 colon = test system: HCC-2998 colon
UO-31 renal = test system: UO-31 renal
SN12C renal = test system: SN12C renal
COLO 205 colon = test system: COLO 205 colon
MOLT-4 leukemia = test system: MOLT-4 leukemia
MDA-MB-231 breast = test system: MDA-MB-231 breast
UACC-257 melanoma = test system: UACC-257 melanoma
MDA-N = test system: MDA-N
SK-MEL-2 melanoma = test system: SK-MEL-2 melanoma
SF-295 CNS = test system: SF-295 CNS
HT29 colon = test system: HT29 colon
SK-MEL-28 melanoma = test system: SK-MEL-28 melanoma
MCF7 breast = test system: MCF7 breast
OVCAR-8 ovarian = test system: OVCAR-8 ovarian
U251 CNS = test system: U251 CNS
OVCAR-5 ovarian = test system: OVCAR-5 ovarian
ACHN renal = test system: ACHN renal
786-0 renal = test system: 786-0 renal
RPMI-8226 leukemia = test system: RPMI-8226 leukemia
SNB-19 CNS = test system: SNB-19 CNS
SF-268 CNS = test system: SF-268 CNS
KM12 colon = test system: KM12 colon

Question: For `NCC(=O)N[C@H]1c2ccsc2/C(=N/O)[C@H]1O`, which TGI (RXF 393 renal) is on record?
Answer: > 100 µM

Question: And the TGI (A549 NSCLC)?
Answer: > 100 µM

Question: What about the TGI (M14 melanoma) of the same compound?
Answer: > 100 µM

Question: And the TGI (LOX IMVI melanoma)?
Answer: > 100 µM

Question: And the TGI (MALME-3M melanoma)?
Answer: > 100 µM

Question: What about the TGI (IGROV1 ovarian) of the same compound?
Answer: > 100 µM

Question: And the TGI (HL-60(TB) leukemia)?
Answer: > 100 µM

Question: What about the TGI (NCI/ADR-RES ovarian) of the same compound?
Answer: > 100 µM

Question: What about the TGI (A498 renal) of the same compound?
Answer: > 100 µM

Question: And the TGI (CCRF-CEM leukemia)?
Answer: > 100 µM

Question: And the TGI (K-562 leukemia)?
Answer: > 100 µM

Question: And the TGI (NCI-H226 lung)?
Answer: > 100 µM

Question: What about the TGI (NCI-H460 lung) of the same compound?
Answer: > 100 µM

Question: And the TGI (T-47D breast)?
Answer: > 100 µM

Question: What about the TGI (SK-MEL-5 melanoma) of the same compound?
Answer: > 100 µM

Question: What about the TGI (SR leukemia) of the same compound?
Answer: > 100 µM

Question: What about the TGI (CAKI-1 renal) of the same compound?
Answer: > 100 µM

Question: What about the TGI (EKVX NSCLC) of the same compound?
Answer: > 100 µM

Question: What about the TGI (OVCAR-3 ovarian) of the same compound?
Answer: > 100 µM

Question: And the TGI (HOP-92 NSCLC)?
Answer: > 100 µM

Question: What about the TGI (OVCAR-4 ovarian) of the same compound?
Answer: > 100 µM

Question: What about the TGI (HOP-62 NSCLC) of the same compound?
Answer: > 100 µM

Question: And the TGI (DU-145 prostate)?
Answer: > 100 µM

Question: What about the TGI (SW-620 colon) of the same compound?
Answer: > 100 µM

Question: And the TGI (SF-539 CNS)?
Answer: > 100 µM

Question: And the TGI (TK-10 renal)?
Answer: > 100 µM

Question: And the TGI (NCI-H23 lung)?
Answer: > 100 µM

Question: What about the TGI (HCT-15 colon) of the same compound?
Answer: > 100 µM

Question: What about the TGI (MDA-MB-435) of the same compound?
Answer: > 100 µM

Question: What about the TGI (BT-549 breast) of the same compound?
Answer: > 100 µM

Question: And the TGI (PC-3 prostate)?
Answer: > 100 µM

Question: And the TGI (UACC-62 melanoma)?
Answer: > 100 µM

Question: What about the TGI (HCT-116 colon) of the same compound?
Answer: > 100 µM

Question: What about the TGI (SK-OV-3 ovarian) of the same compound?
Answer: > 100 µM

Question: And the TGI (HCC-2998 colon)?
Answer: > 100 µM

Question: And the TGI (UO-31 renal)?
Answer: > 100 µM

Question: What about the TGI (SN12C renal) of the same compound?
Answer: > 100 µM

Question: What about the TGI (COLO 205 colon) of the same compound?
Answer: > 100 µM

Question: What about the TGI (MOLT-4 leukemia) of the same compound?
Answer: > 100 µM

Question: What about the TGI (MDA-MB-231 breast) of the same compound?
Answer: > 100 µM

Question: And the TGI (UACC-257 melanoma)?
Answer: > 100 µM

Question: What about the TGI (MDA-N) of the same compound?
Answer: > 100 µM

Question: What about the TGI (SK-MEL-2 melanoma) of the same compound?
Answer: > 100 µM

Question: And the TGI (SF-295 CNS)?
Answer: > 100 µM

Question: What about the TGI (HT29 colon) of the same compound?
Answer: > 100 µM

Question: What about the TGI (SK-MEL-28 melanoma) of the same compound?
Answer: > 100 µM

Question: What about the TGI (MCF7 breast) of the same compound?
Answer: > 100 µM

Question: What about the TGI (OVCAR-8 ovarian) of the same compound?
Answer: > 100 µM

Question: And the TGI (U251 CNS)?
Answer: > 100 µM

Question: And the TGI (OVCAR-5 ovarian)?
Answer: > 100 µM

Question: For `C#CCOC(=O)C=[N+]=[N-]`, which TGI (RXF 393 renal) is on record?
Answer: > 10 µM

Question: What about the TGI (A549 NSCLC) of the same compound?
Answer: > 10 µM

Question: What about the TGI (M14 melanoma) of the same compound?
Answer: > 10 µM

Question: And the TGI (LOX IMVI melanoma)?
Answer: > 10 µM

Question: What about the TGI (MALME-3M melanoma) of the same compound?
Answer: > 10 µM

Question: And the TGI (IGROV1 ovarian)?
Answer: > 10 µM

Question: What about the TGI (HL-60(TB) leukemia) of the same compound?
Answer: > 10 µM

Question: And the TGI (A498 renal)?
Answer: > 10 µM

Question: And the TGI (CCRF-CEM leukemia)?
Answer: > 10 µM

Question: What about the TGI (ACHN renal) of the same compound?
Answer: > 10 µM

Question: What about the TGI (K-562 leukemia) of the same compound?
Answer: > 10 µM

Question: What about the TGI (NCI-H226 lung) of the same compound?
Answer: > 10 µM

Question: And the TGI (NCI-H460 lung)?
Answer: > 10 µM

Question: And the TGI (T-47D breast)?
Answer: > 10 µM

Question: And the TGI (SR leukemia)?
Answer: > 10 µM

Question: What about the TGI (EKVX NSCLC) of the same compound?
Answer: > 10 µM

Question: And the TGI (OVCAR-3 ovarian)?
Answer: > 10 µM

Question: What about the TGI (HOP-92 NSCLC) of the same compound?
Answer: > 10 µM

Question: And the TGI (786-0 renal)?
Answer: > 10 µM

Question: What about the TGI (HOP-62 NSCLC) of the same compound?
Answer: > 10 µM

Question: And the TGI (DU-145 prostate)?
Answer: > 10 µM

Question: What about the TGI (SW-620 colon) of the same compound?
Answer: > 10 µM

Question: What about the TGI (SF-539 CNS) of the same compound?
Answer: > 10 µM

Question: And the TGI (RPMI-8226 leukemia)?
Answer: > 10 µM

Question: And the TGI (SNB-19 CNS)?
Answer: > 10 µM

Question: And the TGI (NCI-H23 lung)?
Answer: > 10 µM

Question: What about the TGI (HCT-15 colon) of the same compound?
Answer: > 10 µM

Question: What about the TGI (MDA-MB-435) of the same compound?
Answer: > 10 µM

Question: What about the TGI (BT-549 breast) of the same compound?
Answer: > 10 µM

Question: What about the TGI (PC-3 prostate) of the same compound?
Answer: > 10 µM

Question: And the TGI (SF-268 CNS)?
Answer: > 10 µM

Question: And the TGI (UACC-62 melanoma)?
Answer: > 10 µM

Question: And the TGI (HCT-116 colon)?
Answer: > 10 µM

Question: And the TGI (KM12 colon)?
Answer: > 10 µM

Question: And the TGI (SK-OV-3 ovarian)?
Answer: > 10 µM

Question: And the TGI (UO-31 renal)?
Answer: > 10 µM

Question: And the TGI (SN12C renal)?
Answer: > 10 µM

Question: And the TGI (MOLT-4 leukemia)?
Answer: > 10 µM

Question: What about the TGI (MDA-MB-231 breast) of the same compound?
Answer: > 10 µM

Question: And the TGI (UACC-257 melanoma)?
Answer: > 10 µM

Question: And the TGI (MDA-N)?
Answer: > 10 µM

Question: What about the TGI (SK-MEL-2 melanoma) of the same compound?
Answer: > 10 µM

Question: What about the TGI (SF-295 CNS) of the same compound?
Answer: > 10 µM

Question: And the TGI (HT29 colon)?
Answer: > 10 µM

Question: And the TGI (SK-MEL-28 melanoma)?
Answer: > 10 µM

Question: And the TGI (MCF7 breast)?
Answer: > 10 µM

Question: And the TGI (OVCAR-8 ovarian)?
Answer: > 10 µM

Question: And the TGI (U251 CNS)?
Answer: > 10 µM

Question: What about the TGI (OVCAR-5 ovarian) of the same compound?
Answer: > 10 µM

Source: PubChem BioAssay (NCI)
